Assay results: patent publication US20240366717A1 (priority 2020, published 2024)
Square brackets hold non-standard residues; d marks the D form. Ends that are not written are not given here.

Experiments:
[1] = Net peptide charge and isoelectric point as a function of pH; type: physicochemical; settings: pH 7
Description: The peptide may be purified. For example, the peptide may be lyophilized. […] Other peptides are within the scope of the disclosure.
Exemplary peptides having a charge of +5 to +9 include […](d)[…], […](d)[…], and […](d)[…]. In other embodiments, the purified peptide may be substantially neutral. […] Net charge may be selected by peptide design. Design of electrostatic charge in the peptide hydrogel may allow control of charge interaction with cell membrane and proteins.

E. coli = assay: Antibacterial assay of PEPXR hydrogels, E. coli; type: cell-based; settings: evaluated against E. coli, S. aureus and P. aeruginosa
Description: Thus, the peptide hydrogels described herein may generally comprise a high content of positively charged arginine (R) amino acids.

| Substance | net charge [1] | antimicrobial activity (E. coli) |
| --- | --- | --- |
| VEVSVSVEV(d)PPTEVSVEVEV | net negative charge | – |
| VKVRVRVRVPPTRVRVRVKV (VKVRVRVRV[dP]PTRVRVRVKV-NH2) [PEP6R] | – | potent antimicrobial activity |
